Reference: patent US20230338340A1, “Methods of Treating Cystic Fibrosis” (The Trustees of Dartmouth College, priority 2020, published 2023)
Like-named read-outs stand apart in the source and are kept apart here. Non-standard residues stand in square brackets, D forms with d. Residues, ends and D or L forms follow the SMILES beside them. Tle = CC(C)(C)[C@H](N)C(=O)O

Columns and labels:
CAL PDZ = target: T1, CAL PDZ (Homo sapiens, UniProt Q9HD26); test: CALP fluorescence polarization (FP) competition assay, HTS format with dose-response validation; type: binding; parameters: Inhibitory activity CALP at 100 μM: unit not given here; conditions: for IC50: read-out: Inhibitory activity CALP IC50
T1 construct: Recombinant CAL PDZ was expressed and purified in E. coli as previously described; made in house; host or cells: E. coli
Procedure: (§1) CALP and/or Dab2 inhibition assays were performed in biochemical “mix-and-measure” format in order to evaluate the effects on activation and inhibition of CALP and/or Dab2 by the compounds of the disclosure. Brief assay procedure is provided below. Unless otherwise specified, all of the compounds were obtained from commercial sources.
CALP inhibitors were identified by fluorescence polarization (FP) competition assays in high-throughput screening (HTS) format. Recombinant CAL PDZ was expressed and purified in E. coli as previously described (Amacher et al., Acta Cyst. (2011) F67, 600-603), and dialyzed into FP storage buffer (25 mM Tris pH 8.5, 150 mM NaCl, 0.1 mM TCEP, and 0.02% sodium azide). A fluorescent reporter peptide, NPG32, was purchased commercially with the following sequence: F*-[…] (F* denotes a N-terminal fluorescein group coupled via an aminohexanoic acid linker). Initial single-dose HTS was performed with libraries comprising ˜52,000 compounds (FAST Lab—Novartis Institutes for BioMedical Research). First, 25 nL of 5 mM small-molecule was transferred to 1536-well Grenier plates. 3 μL of 3.708 μM CALP in FP buffer (FP storage buffer supplemented with […]) was added, and plates were incubated for 10 min. Next, 3 μL of 60 nM NPG32 (in FP buffer) was added. Final reaction volumes were 6 μL and contained 1.854 μM CALP, 30 nM NPG32, and 20.83 μM small-molecule. […] Plates were incubated for 30 minutes at room temperature and anisotropy was measured (480 nm excitation wavelength and 535 nm emission wavelength). […] Compounds were validated in triplicate using 8-point dilution series in half-log increments with two orthogonal assays: FRET and TMR-based FP assay. For the FRET assay, a cerulean-CALP fusion protein (Cer-CALP) was expressed and purified as previously described (Zhao et al., 2018). A fluorescent reporter peptide, PRC34, was purchased commercially with the following sequence: TMR*-[…] (TMR* denotes a N-terminal tetramethylrhodamine group coupled via an aminohexanoic acid linker). First, 40 nL of compound was transferred to the plates. 5 μL of 16.632 μM Cer-CALP was added, and plates were incubated for 30 min. Next, 5 μL of 16.632 μM PRC34 was added, and plates were incubated for 30 min. Final reaction volumes were 10 μL and contained 8.316 μM CALP, 8.316 μM […], and variable concentrations of small-molecule. Negative controls contained equivalent amounts of DMSO (0.4%), while positive controls contained 100 μM NPG30 (sequence: […]). Plates were incubated for 30 min, and emission at 475 nm and 575 nm was measured following excitation at 430 nm. TMR FP assays were conducted as described for the FITC-based assay with the following exceptions: TMR was used as the reporter peptide, the final CALP concentration was 11.952 μM, and the positive control used was 100 μM NPG30.

Human-Dab2-DH = target: T2, Human-Dab2-DH (Homo sapiens, UniProt P98082); test: Dab2 FP competition assay via HTS; type: binding
T2 construct: fused on or other part: N-terminal 10xHis tag with a 3C protease site, cleaved off unless otherwise indicated
T2 sequence (P98082 33-178 limits assumed): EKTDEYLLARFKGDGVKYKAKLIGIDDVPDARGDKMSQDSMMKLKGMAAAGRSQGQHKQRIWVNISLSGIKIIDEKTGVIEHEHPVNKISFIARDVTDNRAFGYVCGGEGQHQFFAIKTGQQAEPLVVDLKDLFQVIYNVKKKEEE
Procedure: as §1
Dab-2 inhibitors were also identified by FP competition assays via HTS. Human-Dab2-DH, residues 31-191 (Uniprot: P98082), and trDab2-DH (residues 33-178) was subcloned into the pET16b vector via PCR utilizing the restriction enzyme sites of Xhol and BamHI. The construct was designed with a 3C protease cleavage site directly upstream and in-frame with the protein coding sequence. DNA was sequence verified. (0.1 mM) IPTG was used to induce protein expression in E. coli BL21(DE3)RIL cells, after reaching an O.D. of […]. […] Followed by 3C cleavage of the 10×His tag (unless otherwise indicated), and a second nickel affinity column to remove the 3C protease and excess tag. Dab2-DH was dialyzed into FP storage buffer (25 mM Tris pH 8.0, 150 mM NaCl, 0.1 mM TCEP, and 0.02% sodium azide). Fluorescent reporter peptides, TIVR*STA02 (TMR*-[…]) and TMR*STA03 (TMR*-[…]), were purchased commercially with the following sequence where TMR* denotes a N-terminal tetramethylrhodamine group coupled via an aminohexanoic acid linker. An unlabled positive control peptide STA02 ([…]) was also purchased commercially. Inhibitors of Dab2-DH were identified from a variety of sources with various protocols outlined below.
For screens conducted at the Novartis Institutes for BioMedical Research FAST Lab, single-dose HTS assays were performed with libraries comprising ˜52,000 compounds at 20 μM doses. Experiments were conducted as described for screens at the University of Pittsburgh Lab and Drug Discovery Institute, except that Dab2-DH, not trDab2-DH, was used as the protein source.
For screens conducted at the Broad Institute, compound transfers were done using a 384-well pin tool equipped with 100 nL hydrophobic surface coated pins. 100 nL of DMSO (negative control), STA02 (positive control), or library compounds were dispensed into 20 μL of protein (200 nM) and reporter (F*-STA02, 30 nM) mixture with 0.1 mg/ml mouse IgG and 0.5 mM Thesit. Final concentrations in the mixture were DMSO ([…]), STA02 (20 μM), and compounds (18 μM). Plates were incubated for 35-45 minutes before measuring polarization. Compounds were tested in duplicates on two separate plates. Positive and negative controls were included in each individual plate.
For experiments conducted at the University of Pittsburgh Lab and Drug Discovery Institute, single-dose HTS assays were performed with a library containing ˜220,000 compounds. On the day of screening, a master mix of equal parts trDab2-DH (900 nM) and TMP-STA03 (90 nM) was prepared. Compound plates containing assay ready 2 μL aliquots of a 1 mM stock solution in DMSO were thawed, reconstituted in FP buffer to a concentration of 30 μM in 3% DMSO, and five μL transferred to low volume assay plates using a Perkin Elmer MDT. Ten μL of master mix were added by a Microflo bulk liquid dispenser (Biotek, Winooski, VT) and processed as described in the general protocol above. Each plate contained 32 wells of positive (Dab2-DH+probe+DMSO) and negative (Dab2-DH+probe +10 μM STA03) controls. Plates were read at 1.5-h and 4-h on the Envision multilabel reader.

[1] = read-out: Inhibitory activity Dab2 IC50

| Compound | Inhibitory activity CALP at 100 μM (CAL PDZ) | IC50 (CAL PDZ) [µM] | IC50 (Human-Dab2-DH; [1]) [nM] | Kd (CAL PDZ; unlabeled peptide used as positive control) [nM] | IC50 (Human-Dab2-DH) [nM] |
| --- | --- | --- | --- | --- | --- |
| CC1COC2C3=C(C(=O)C=CC3=O)C3OC(=O)C4CCC5C1CCC25C43 (centres unmarked) [Example 2, 6-methyl-2a,2a^1,3,4,4a,5,6,7,8a,12b-decahydro-2H-4a^1,5-ethanofuro[4′,3′,2′:4,10]anthra[9,1-bc]oxepine-2,9,12-trione] | −67.12 | 1.3 | 220 | – | – |
| Oc1ccc(N2CCN(c3ncccn3)CC2)cc1 [Example 5, 4-(4-(pyrimidin-2-yl)piperazin-1-yl)phenol] | −46.33 | 40.5 | 20600 | – | – |
| CC[C@@]1(O)C[C@H](O[C@H]2C[C@H](N(C)C)[C@H](O)[C@H](C)O2)c2c(cc3c(c2O)C(=O)c2c(O)ccc(O)c2C3=O)[C@H]1C(=O)OC [Example 14, methyl (1R,2R,4S)-4-(((2R,4S,5S,6S)-4-(dimethylamino)-5-hydroxy-6-methyltetrahydro-2H-pyran-2-yl)oxy)-2-ethyl-2,5,7,10-tetrahydroxy-6,11-dioxo-1,2,3,4,6,11-hexahydrotetracene-1-carboxylate] | −67.06 | 0.73 | – | – | – |
| CC1=C(O)C(=O)C=C2C1=CC=C1[C@@]2(C)CC[C@@]2(C)[C@@H]3C[C@](C)(C(=O)O)CC[C@]3(C)CC[C@]12C [Example 24, (2R,4aS,6aS,12bR,14aS,14bR)-10-hydroxy-2,4a,6a,9,12b,14a-hexamethyl-11-oxo-1,2,3,4,4a,5,6,6a,11,12b,13,14,14a,14b-tetradecahydropicene-2-carboxylic acid] | – | – | 660 | – | – |
| O=C1c2c(O)c(Cl)cc3c2[C@@]2(Oc4cc(Cl)c(O)c5c4[C@]3(O2)[C@@H]2O[C@@H]2C5=O)[C@@H]2O[C@H]12 [Example 3, (1aR,1bS,5aS,6aR,6bS,11aS)-3,9-dichloro-4,10-dihydroxy-1a,5a,6a,11a-tetrahydro-5H,11H-1b,6b-epoxyoxireno[2′,3′:2,3]naphtho[1,8-bc]oxireno[2′,3′:2,3]naphtho[1,8-ef]oxepine-5,11-dione] | −80.85 | 25.3 | 260 | – | – |
| COc1c(O)c2c(=O)cc(OC)c3c4c(OC)cc(=O)c5c(O)c(OC)c(CC(C)OC(=O)c6ccccc6)c(c(c1CC(C)OC(=O)Oc1ccc(O)cc1)c23)c54 (centres unmarked) [Example 20, 1-(3,10-dihydroxy-12-(2-(((4-hydroxyphenoxy)carbonyl)oxy)propyl)-2,6,7,11-tetramethoxy-4,9-dioxo-4,9-dihydroperylen-1-yl)propan-2-yl benzoate] | – | – | – | – | 510 |

Further lines, with some results ahead:

| Inhibitory activity CALP at 100 μM (CAL PDZ) | IC50 (CAL PDZ) [µM] | IC50 (Human-Dab2-DH; [1]) [nM] | Kd (CAL PDZ; unlabeled peptide used as positive control) [nM] | Compound | IC50 (Human-Dab2-DH) [nM] |
| --- | --- | --- | --- | --- | --- |
| −65.53 | 11.3 | 2450 | – | O=C(O[C@@H]1Cc2c(O)cc(O)cc2O[C@@H]1c1cc(=O)c(O)c2c(O)c(O)cc([C@H]3Oc4cc(O)cc(O)c4C[C@H]3O)c2c1)c1cc(O)c(O)c(O)c1 [Example 1, (2R,3R)-5,7-dihydroxy-2-(3,4,5-trihydroxy-6-oxo-1-((2R,3R)-3,5,7-trihydroxychroman-2-yl)-6H-benzo[7]annulen-8-yl)chroman-3-yl 3,4,5-trihydroxybenzoate] | – |
| −74.42 | 1.24 | – | – | COc1cc(O)c2c(c1)oc(=O)c1c3cc(O)c(O)cc3oc21 [Example 7, 1,8,9-trihydroxy-3-methoxy-6H-benzofuro[3,2-c]chromen-6-one] | – |
| – | – | – | ≤ 1000 | CC(C)[C@H](NC(=O)[C@H](CCC(N)=O)NC(=O)[C@H](Cc1c[nH]c2ccccc12)NC(=O)[C@H](CCCNC(=N)N)NC(=O)[C@H](CO)NC(=O)[C@H](CC(N)=O)NC(=O)[C@H](C)N)C(=O)N[C@H](C(=O)N[C@@H](CCCNC(=N)N)C(=O)N[C@H](C(=O)O)C(C)(C)C)[C@@H](C)O [NPG35, reference compound] (H-ANSRWQVTR[Tle]-OH) | – |
| −54.29 | 4.71 | – | – | C/C1=C/CC(O)/C=C\C(C)C(O)C(C)/C=C(\C)C(=O)c2c(O)c(C)cc3c2C(=O)C(Cl)=C(NC(=O)/C=C/C=C/C=C/C(C)C(O)CC1=O)C3=O (centres unmarked) [Example 15, 2-chloro-13,19,23,28-tetrahydroxy-12,16,22,24,26,29-hexamethyl-13,14,19,22,23,24-hexahydro-1H-3,31-methanobenzo[e][1]azacyclononacosine-1,5,15,27,32(4H,12H,18H)-pentaone] | – |
| – | – | 390 | – | COC(=O)C1=COC(OC2OC(CO)C(O)C(O)C2O)C2C(CO)=CCC12O (centres unmarked) [Example 28, methyl 4a-hydroxy-7-(hydroxymethyl)-1-((3,4,5-trihydroxy-6-(hydroxymethyl)tetrahydro-2H-pyran-2-yl)oxy)-1,4a,5,7a-tetrahydrocyclopenta[c]pyran-4-carboxylate] | – |
| −94.09 | 10.2 | 3420 | – | Cc1c(O)c(O)c(O)c(C=O)c1C=O [Example 4, 3,4,5-trihydroxy-6-methylphthalaldehyde] | – |
| – | – | 9410 | – | CC[N+](C)(CC)CCC[n+]1c(-c2ccccc2)c2cc(N)ccc2c2ccc(N)cc21 [Example 29, 3,8-diamino-5-(3-(diethyl(methyl)ammonio)propyl)-6-phenylphenanthridin-5-ium bromide] | – |
